The target of assay [1] is T1, V-ATPase (purified from enterococci or recombinant E. coli) (Enterococcus hirae, UniProt P43439+P43457).
T1 construct: made in house; host or cells: Enterococcus hirae (native) or recombinant E. coli
Put plainly: ATPase activity measurement (molybdenum blue method, primary screening). In kind it is biochemical. The procedure: The ATPase activity can be measured by a molybdenum blue method for measuring absorbance of the inorganic phosphoric acid generated by hydrolysis of ATP. As the reaction conditions, conditions for measuring the ATPase activity can be adopted. As the buffer solution used in the reaction, Tris-HCl buffer can be used. The reaction time is usually 10 to 60 minutes, but can be appropriately adjusted depending on the air temperature or the like. The reaction of V-ATPase is terminated with the addition of a surfactant such as sodium dodecyl sulfate (SDS), and into which a color-developing liquid (such as ferrous sulfate) is added to give a color, and then the concentration of the inorganic phosphoric acid can be calculated by the measurement of the absorbance at a wavelength of 650 nm.
From the concentration of inorganic phosphoric acid calculated above, the inhibition rate of the V-ATPase reaction can be calculated. That is, a graph is created in which the inhibition rate is plotted on the vertical axis and the concentration of compound is plotted on the horizontal axis, and the concentration (IC50) at which the inhibition rate becomes 50% is determined. As the concentration of compound at which IC50 is obtained becomes lower, a higher V-ATPase inhibitory effect is exerted with a small amount, and accordingly, the compound can be taken as a candidate compound for the inhibitor for V-ATPase activity.
The V-ATPase was prepared by the method disclosed in the following papers. • Paper 1: Takeshi Murata, et. al, “Purification and Reconstitution of Na^+-translocating Vacuolar ATPase from Enterococcus hirae”, J. Biol. Chem. 272, 24885-24890 (1997) • Paper 2: Takeshi Murata, et. al, “Torque Generation of Enterococcus hirae V-ATPase”, J. Biol. Chem. 289, 31212-31223 (2014)
ATPase activity measurement was conducted by a molybdenum blue method that quantifies the inorganic phosphoric acid generated by hydrolysis of ATP with the use of absorbance measurement. The measurement was conducted in a 96-well plate, and 0.05% DDM (n-dodecyl-β-D-maltoside), 10 μg/mL of V-ATPase (purified from enterococci or recombinant E. coli), and 20 μM of a compound were added into a buffer (100 mM Tris-HCl at pH 8.5, 100 mM NaCl, 5 mM MgSO4, 10% glycerol). Into the mixture obtained above, ATP was added so as to be 5 mM, the whole amount was set to 100 μL, the reaction was started while stirring the mixture with a stirrer, and the reaction time was set to 30 minutes. Since the ATPase activity changes largely depending on the reaction temperature, the reaction time was adjusted within the range of 10 to 60 minutes corresponding to the air temperature on the day of the experiment. With the addition of 50 μL of 20% SDS, the V-ATPase was denatured and the reaction was terminated, and into the resultant mixture, 75 μL of color-developing liquid (5% ferrous sulfate, 1.6% ammonium molybdate, and 1 M sulfuric acid) was added to give a color. Immediately, the absorbance at a wavelength of 650 nm was measured by using a plate reader. Four kinds of KH2PO4 aqueous solutions of 0.2 mM, 0.5 mM, 1.0 mM, and 1.5 mM were reacted with MQ (ultrapure water) in the same experiment system, and then the activity of V-ATPase was measured by determining the concentration of generated inorganic phosphoric acid with the use of a created calibration curve. In this regard, a compound that had inhibited 50% or more of the activity of V-ATPase was diluted stepwisely so as to have a concentration of 10 μM, 5 μM, 2 μM, 1 μM, 500 nM, 200 nM, 100 nM, and 50 nM, and the measurement similar to the above was conducted.
From the results of the above measurement of ATPase activity, the inhibition rate was calculated comparing the decrease in the activity by assuming the activity under the condition of no compound addition as 100. A graph was created in which the inhibition rate was plotted on the vertical axis and the concentration of compound was plotted on the horizontal axis (FIG. 2). […]

Assay [2] deals with enterococci (Enterococcus hirae). Put plainly: Growth experiment of enterococci (secondary screening), OD600 at pH 7.0 and pH 8.5. Also noted: Growth inhibition rate (%): concentration or dose not given beside the values. In kind it is cell-based. Particulars: for Specificity: growth inhibition at pH 8.5 versus pH 7.0. The procedure: In the culture of enterococci (Enterococcus hirae), a culture medium in which the Na^+ concentration had been adjusted by adding a buffer solution using 2% tryptone and 1% yeast extract as the base was used. In a case of adding glucose, glucose prepared in a 50% solution was added so as to be 1% into the culture medium when the culture medium was used. The whole amount 200 μL was cultured using a 96-well plate, and OD600 was measured every hour by using a plate reader. By using culture media at pH 7.0 and pH 8.5, the effect of pH on the growth was observed. In culture of bacteria, the pH often fluctuates largely due to the decomposition of the sugars required for the growth, and it is extremely important to maintain a constant pH in this experiment, and therefore, the pH was maintained constant with the addition of a buffer suitable for each pH. Since the V-ATPase is expressed only under an alkaline condition, the growth inhibition observed with the addition of an inhibitor is largely dependent on the pH.
IC50 and the like of the above 24 kinds of compounds are described in the following table. […] Furthermore, with respect to the symbol “n.a.”, a compound having a growth inhibition rate of 60% or more at pH 7.0 is determined that there was the growth inhibition. In addition, the growth inhibition rate of a compound having no clear inhibition is also recorded for reference.

Where [3] appears, read: Table 2, inhibition of V-ATPase ATPase activity, pH 8.5 buffer, read-out: IC50.
[4] abbreviates: Table 2, E. hirae growth, pH not stated (media pH 7.0 and pH 8.5).
The mark [5] stands for this setting: Table 3, 2-phenyl benzimidazole derivatives, read-out: IC50.
Where [6] appears, read: Table 3, 2-phenyl benzimidazole derivatives.
Setting [7] is: IC50 (nM), Table 4, (1,2,4-oxadiazol-3-yl)phenyl derivatives.
The mark [8] stands for this setting: Table 4, (1,2,4-oxadiazol-3-yl)phenyl derivatives.
Where [9] appears, read: IC50 (nM), Table 2, inhibition of V-ATPase ATPase activity, pH 8.5 buffer.
Where [10] appears, read: high affinity for V-ATPase (IC50), unit inferred.

Where two headings read alike, the source gives them in different places. Bounds are passed on as bounds.

Consider 17 compounds from US12599588B2, “Inhibitor for V-ATPase activity, antibacterial agent, medicine, antibacterial method and screening method” (Japan Science and Technology Agency, priority 2019, dated 2026).

With `CC(C)CN(CC(C)C)c1ccc([N+](=O)[O-])cc1/C=N/Nc1ccccc1` [Compound V-105], the IC50 in assay [1] (setting [3]) was found to be 1000 nM. For the same compound, the “Growth inhibition rate (%)” value in assay [2] (setting [4]) is 90.8%. In addition, the Specificity entry in assay [2] (Table 2) is “n.a. (there was the growth inhibition in any case)”.
Take `Cc1ccc2[nH]c(-c3ccc(I)cc3)nc2c1` [Compound V-161-04]: in assay [1] (setting [5]), the IC50 was found to be 120 nM. Further, in assay [2] (setting [6]), the “Growth inhibition rate (%)” value came to 90.3%. Also, the Specificity entry in assay [2] (Table 3) is recorded as “+ (there was no growth inhibition at pH 7.0 but was the growth inhibition at pH 8.5)”.
Consider `CCCc1ccc(OCc2nc(-c3ccc(NC(=O)c4cccs4)cc3)no2)cc1` [Compound V-234-01], for which the IC50 in assay [1] (setting [7]) was found to be 50 nM. In assay [2] (setting [8]), the “Growth inhibition rate (%)” value is on record as 76.9%.
With `CCCCCOc1ccc(NC(=O)c2cccs2)cc1` [Compound V-103], the IC50 in assay [1] (setting [9]) is 100 nM. In assay [2] (setting [4]), the “Growth inhibition rate (%)” value is 45.3%. Besides, in assay [2] (Table 2), the Specificity result was “+ (there was no growth inhibition at pH 7.0 but was the growth inhibition at pH 8.5)”.
Regarding `Cc1ccc2[nH]c(-c3ccc(N4CCCC4)cc3)nc2c1` [Compound V-161-01], in assay [1] (IC50 (nM), Table 3, 2-phenyl benzimidazole derivatives), the IC50 amounted to 50 nM. Besides, the “Growth inhibition rate (%)” value in assay [2] (setting [6]) is recorded as 89.7%. In addition, the Specificity result in assay [2] (Table 3) is on record as “+ (there was no growth inhibition at pH 7.0 but was the growth inhibition at pH 8.5)”.
Regarding `CCCCC#Cc1cncc(C(=O)N/N=C/c2cccs2)c1` [Compound V-99], in assay [1] (setting [3]), the IC50 was found to be 2500 nM. Besides, the “Growth inhibition rate (%)” value in assay [2] (setting [4]) is 6.7%. Further, the Specificity entry in assay [2] (Table 2) is given as “− (there was no growth inhibition in any case)”.
For `N=C(N)Nc1nc(-c2ccccc2)c2cc(F)ccc2n1` [Compound V-171] the same measures were 2500 nM, 85.6% and “+ (there was no growth inhibition at pH 7.0 but was the growth inhibition at pH 8.5)”.
For `O=C1N=C(O)N=C(O)C1=Cc1ccc(-c2ccc([N+](=O)[O-])cc2)o1` [Compound V-278], the IC50 in assay [1] (setting [9]) was determined as 250 nM. For the same compound, the “Growth inhibition rate (%)” value in assay [2] (setting [4]) is reported as 44.4%. The Specificity result in assay [2] (Table 2) is reported as “+ (there was no growth inhibition at pH 7.0 but was the growth inhibition at pH 8.5)”.
As for `CCCCCCCCc1ccc(O)c(C=O)c1` [Compound V-91], the IC50 in assay [1] (setting [3]) is 850 nM. In addition, the “Growth inhibition rate (%)” value in assay [2] (setting [4]) amounted to 90.9%. Also, the Specificity entry in assay [2] (Table 2) was “n.a. (there was the growth inhibition in any case)”.
As for `CN(C)C(=S)N/N=C1\C(=O)C(c2ccccc2)(c2ccccc2)c2ccccc21` [Compound V-150], in assay [1] (setting [3]), the IC50 was 500 nM. The “Growth inhibition rate (%)” value in assay [2] (setting [4]) is recorded as 70.4%. Further, in assay [2] (Table 2), the Specificity entry is given as “n.a. (there was the growth inhibition in any case)”.
For `CCOc1ccc2nc3cc(N)ccc3c(N)c2c1` [Compound V-170] the same measures were 10000 nM, 49.7% and “+ (there was no growth inhibition at pH 7.0 but was the growth inhibition at pH 8.5)”.
With `Cc1ccccc1OCc1nc(-c2ccc(NC(=O)c3cccs3)cc2)no1` [Compound V-234, N-(4-(5-((o-tolyloxy)methyl)-1,2,4-oxadiazol-3-yl)phenyl)thiophene-2-carboxamide], the IC50 was 40 nM in assay [1] (setting [9]), 40 nM in assay [1] (setting [7]) and not above 400 nM in assay [1] (setting [10]). Also, the “non-specific inhibition / non-specific bond” value in assay [2] is on record as “no non-specific inhibition”. The “Growth inhibition rate (%)” value in assay [2] (setting [4]) and in assay [2] (setting [8]) was 75.5% in each case. The Specificity result in assay [2] (Table 2) was “+ (there was no growth inhibition at pH 7.0 but was the growth inhibition at pH 8.5)”.
On to `CC1=C(/C=C/C(C)=C/C=C/C(C)=C/C(=O)Nc2ccc(O)cc2)C(C)(C)CCC1` [Compound V-84, (2E,4E,6E,8E)-N-(4-hydroxyphenyl)-3,7-dimethyl-9-(2,6,6-trimethylcyclohexyl-1-en-1-yl)nona-2,4,6,8-tetraeneamide], for which the figures for the IC50 in assay [1] (setting [9]) and in assay [1] (setting [10]) were 80 nM and not above 400 nM, respectively. In assay [2], the “non-specific inhibition / non-specific bond” value is reported as “non-specific inhibition”. Moreover, the “Growth inhibition rate (%)” value in assay [2] (setting [4]) worked out at 90.6%. Moreover, the Specificity result in assay [2] (Table 2) is “− (there was no growth inhibition in any case)”.
As for `CCc1ccc(-c2nc3cc(C)ccc3[nH]2)cc1` [Compound V-161-02], the IC50 in assay [1] (setting [5]) came to 120 nM. Also, the “Growth inhibition rate (%)” value in assay [2] (setting [6]) is on record as 88.5%. The Specificity result in assay [2] (Table 3) is “+ (there was no growth inhibition at pH 7.0 but was the growth inhibition at pH 8.5)”.
Regarding `Cc1ccc(C(=O)Nc2ccc(-c3noc(COc4cccc(C)c4C)n3)cc2)s1` [Compound V-234-03], the IC50 in assay [1] (setting [7]) was determined as 6 nM. Also, the “Growth inhibition rate (%)” value in assay [2] (setting [8]) is 72.0%.
Regarding `COc1ccc(-c2nc3cc(C)ccc3[nH]2)cc1` [Compound V-161-10], in assay [1] (setting [5]), the IC50 amounted to 120 nM. In addition, the “Growth inhibition rate (%)” value in assay [2] (setting [6]) was 86.8%. The Specificity entry in assay [2] (Table 3) was “+ (there was no growth inhibition at pH 7.0 but was the growth inhibition at pH 8.5)”.
`CCCCCCCCCOc1ccc(C=C2C(=O)NC(=O)NC2=O)cc1` [Compound V-130, 5-(4-(nonyloxy)benzylidene)pyrimidine-2,4,6 (1H,3H,5H)-trione]: the IC50 in assay [1] (setting [9]) is 20 nM; in assay [1] (setting [10]), not above 400 nM. Also, the “non-specific inhibition / non-specific bond” value in assay [2] is on record as “non-specific inhibition”. For the same compound, the “Growth inhibition rate (%)” value in assay [2] (setting [4]) was 88.2%. Also, the Specificity entry in assay [2] (Table 2) is listed as “− (there was no growth inhibition in any case)”.
